Key:
PC12 cells [1] = settings: PC12 cells and sympathetic neurons, Troy et al., 1996b; cited from earlier work
naive PC12 cells [2] = settings: PC12 cells and sympathetic neurons, Troy et al., 1996b; cited from earlier work
naive PC12 cells [3] = experiment: Survival of naive PC12 cells after serum deprivation (intact nuclei count); type: cell-based, rat; settings: for protection from death caused by serum deprivation: additive at time of plating in serum-free medium, 24 hours
Protocol: (FIG. 4B) Dose-response curve for protection from serum deprivation by V-ANedd. PC12 cells were washed for trophic factor deprivation and plated in serum-free medium with the indicated concentrations of V-ANedd. Cell survival relative to the number present with the addition of NGF was measured at one day.
PC12 cells were grown as previously described (Greene and Tischler, 1976) on rat-tail collagen-coated dishes in RPMI 1640 medium containing 5% fetal calf serum and 10% heat-inactivated horse serum (complete medium). […] For cell survival assays involving trophic factor deprivation, cells (either naive or NGF-pretreated) were extensively washed in serum-free RPMI 1640 medium and re-plated on fresh collagen-coated 24-well dishes as previously described (Rukenstein et al., 1991) in RPMI 1640 medium lacking serum or NGF. […] Various concentrations of V-ANedd (vector linked antisense oligonucleotide to Nedd2) were included in the medium as indicated. Numbers of viable cells per culture were determined by quantifying intact nuclei as previously described (Rukenstein et al., 1991). Counts were performed in triplicate and reported as means ±SEM.

Jurkat cells = experiment: Anti-Fas mediated death of Jurkat cells; type: cell-based, human; settings: dose-dependent, FIG. 8
Source text: FIG. 8. […] V-ICH is an antisense oligonucleotide having an antisense sequence of human Ich, specifically V-AICH has the sequence of Seq ID No. 2.
• 1. […] Beta-amyloid peptide mediates apoptosis in PC12 cells. This apoptosis can be abrogated by down-regulation of Nedd2. Clinical Relevance of Antisense Oligonucleotides.

[4] = tested on: neuronally differentiated PC12 cells; experiment: Survival of neuronally differentiated PC12 cells after NGF withdrawal; type: cell-based, rat
Protocol: (§1) (FIG. 5A) V-ANedd differentially protects neuronally differentiated PC12 cells from apoptosis caused by NGF withdrawal. PC12 cells were neuronally differentiated by exposure to NGF (100 ng/ml) for at least 7 days in RPMI 1640 medium plus 1% horse serum. Cells were deprived of serum and NGF and re-plated as described in FIGS. 4A–C. Additives present at the time of plating included 400 nM V-ANedd, 400 nM V-ICEinh or 100 ng/ml NGF (4 left-hand bars). For SOD1 down-regulation (4 right-hand bars) neuronally differentiated PC12 cells were plated in RPMI 1640 medium plus 1% horse serum, with 100 ng/ml NGF. At the time of plating, cultures were incubated, as indicated, with 50 nM V-ASOD1 and with the indicated additives (800 nM V-ANedd, 50 nM V-ICEinh). Cell survival was determined after one day and expressed as in FIGS. 4A–C.
(FIG. 5B) Dose-response curve for protection from NGF deprivation by V-ANedd. Neuronally differentiated PC12 cells were washed as above for NGF deprivation and plated in serum-free medium with the indicated concentrations of V-ANedd. Cell survival relative to the number present with the addition of NGF was quantified at one day.
(FIG. 5C) V-ANedd provides long term protection against NGF deprivation. Neuronally differentiated PC12 cells were deprived of NGF and serum and plated as described in FIG. 5A. V-ANedd (400 nM) was included at the time of NGF deprivation and replenished 1 day later. Cell survival was determined at the indicated times as in FIGS. 4A–C.
(§2) PC12 cells were grown as previously described (Greene and Tischler, 1976) on rat-tail collagen-coated dishes in RPMI 1640 medium containing 5% fetal calf serum and 10% heat-inactivated horse serum (complete medium). NGF primed (neuronally differentiated) PC12 cells were grown for at least 7 days in RPMI 1640 medium plus 1% horse serum and NGF (100 ng/ml). […] Numbers of viable cells per culture were determined by quantifying intact nuclei as previously described (Rukenstein et al., 1991). […]

sympathetic neurons [5] = experiment: Survival of sympathetic neurons after NGF deprivation; type: cell-based, rat; settings: for survival: single addition at time of NGF withdrawal
Protocol: (FIG. 6A) V-ANedd protects sympathetic neurons from NGF-withdrawal. At the time of NGF deprivation, V-ANedd (400 nM) was added to the cultures as indicated. Numbers of surviving neurons were determined at the indicated times as described in Experimental Procedures hereinbelow and are reported as relative to the number present in each culture at the time of NGF withdrawal.
(§3) Sympathetic neuron cultures were prepared from 2 day old rat pups, as previously described (Ferrari et al., 1995). Cultures were grown in 24-well collagen coated dishes in RPMI 1640 medium plus 10% horse serum with mouse NGF (100 ng/ml). One day following plating, uridine and 5-fluorodeoxyuridine (10 μM each) were added to the cultures and left for three days to eliminate non-neuronal cells. On the sixth day following plating NGF was removed by washing the cultures three times with RPMI 1640 medium plus 10% horse serum, followed by the addition of medium containing anti-mouse NGF (1:200, Sigma, St. Louis, Mo.) with or without V-ANedd. Each culture was scored, as previously described (Rydel and Greene, 1988), as numbers of living, phase-bright neurons at various times. Three replicate cultures were assessed for each condition and data are normalized to numbers of neurons present in each culture at the time of NGF withdrawal and reported as mean ±SEM.

CPP-32 = experiment: Western blot of the same samples probed with anti-CPP32; type: cell-based, rat; settings: blots of the same samples probed with anti-CPP32
PC12 cells [6] = experiment: Survival of PC12 cells after SOD1 down-regulation by V-ASOD1; type: cell-based, rat
Protocol: (FIG. 4A) V-ANedd differentially protects PC12 cells from serum deprivation. For serum deprivation (4 left-hand bars) cells were extensively washed as described in Experimental Procedures hereinbelow and the indicated additives (100 ng/ml NGF, 400 nM V-ANedd, or 200 nM V-ICEinh were added at the time of plating in serum-free RPMI1640 medium. For SOD1 down-regulation (4 right-hand bars), PC12 cells were re-plated on fresh collagen-coated 24-well dishes in complete medium (RPMI 1640 medium with 10% horse serum, 5% fetal bovine serum) with 50 nM V-ASOD1 (vector linked antisense oligonucleotide to SOD1). Additives (800 nM V-ANedd, 25 nM V-ICEinh) were included as indicated. Control cells were in complete medium. Cultures were incubated for 24 hours, lysed and number of intact nuclei counted. The numbers of surviving cells are expressed relative to the number in the control cultures (designated as 100). […] Experiments were performed in triplicate wells and data are expressed as means ±SEM.
as §2, with “medium).” for “medium). NGF primed (neuronally differentiated) PC12 cells were grown for at least 7 days in RPMI 1640 medium plus 1% horse serum and NGF (100 ng/ml).”

[7] = tested on: neuronally differentiated PC12 cells; experiment: Survival of neuronally differentiated PC12 cells after SOD1 down-regulation; type: cell-based, rat; settings: 50 nM V-ASOD1
Protocol: as §1, §2

IL-1β = IL-1β release from PC12 cells by ELISA; type: cell-based, rat; settings: 50 nM V-ASOD1, 800 nM V-ANedd, 20 hours
Protocol: PC12 cells were plated with the indicated additives (50 nM V-ASOD1, 25 nM V-ICEinh, 800 nM V-ANedd). Controls contained complete medium. After 20 hours, media were removed and IL-1β was measured by ELISA using the Intertest-1βX® kit. Data are expressed as means ±SEM (n=3).
IL-1β was quantified by ELISA using the Intertest-1βX® kit (Genzyme, Cambridge, Mass.) as previously described (Troy et al., 1996b). PC12 cells were grown as described above, on 24-well plates, in 500 μl of medium. After one day incubation, medium was removed and IL-1β measured following the manufacturer's instructions, and number of viable cells in each well quantified.

Nedd2 [8] = experiment: Western blot of Nedd2 in PC12 cell lysates; type: cell-based, rat
Source text: The cells were extracted in sample buffer, the extracts boiled and equal amounts of protein resolved by 10% SDS-PAGE and transferred to nitrocellulose. Blots were probed with (FIG. 3A) anti-N-Nedd at 1:500 or (FIG. 3B) anti-C-Nedd at […] and staining visualized with ECL. Bands were quantified using Scion Image® software and normalized against peripherin levels. The level of down-regulation is representative of that obtained in 5 independent experiments.
PC12 cells grown with or without V-ANedd or V-SNedd were harvested in SDS-containing sample buffer and immediately boiled. Equal amounts of protein were separated by 10% PAGE, transferred to nitrocellulose and immunostained as described (Troy et al., 1992). The affinity purified anti-N-Nedd2 was used at a dilution of 1:500. The commercial antiserum, Nedd2 p12 C20 (Santa Cruz Biotechnology), was used at a dilution of 1:350. Visualization was with ECL using goat-anti-rabbit peroxidase at 1:1000. The relative intensity of the protein bands were quantified using Scion Image 1.55® software and samples were normalized by stripping and reprobing the blots with anti-peripherin antibody.

sympathetic neurons [9] = experiment: Sympathetic neuron death by SOD1 down-regulation and nitric oxide generation (V-ASOD1 + SNAP); type: cell-based, rat; settings: V-ASOD1 50 nM, SNAP 100 μM, with NGF
Protocol: Sympathetic neurons, after 6 days in culture, were maintained with NGF (100 ng/ml) and mixtures of the following additives as indicated: V-ASOD1 (50 nM), SNAP (100 μM) and V-ANedd (400 nM). Numbers of surviving neurons were determined at the indicated times as above.
as §3

Nedd2 [10] = experiment: Nedd2 immunofluorescence staining of PC12 cells with anti-N-Nedd2; type: cell-based, rat; settings: 400 nM, 24 hours, naive and neuronal PC12 cells
Protocol: Naive and neuronally differentiated PC12 cells (pretreated for at least 7 days with NGF, nerve growth factor) were plated on Matrigel coated multichamber slides. V-ANedd (400 nM) was added to the indicated cultures after plating. Naive cultures were grown in RPMI 1640 medium with 5% FCS and 10% horse serum; neuronal cultures were grown in RPMI 1640 medium with 1% horse serum and NGF (100 ng/ml). After overnight maintenance, cells were fixed in ice cold methanol and then immunostained with anti-N-Nedd.
PC12 cells were plated on coverslips or on 8 well multichamber slides (LabTek, VWR), coated with Matrigel®. After growth overnight, cells were fixed in ice cold methanol and then immunostained as described (Troy et al., 1990). The primary antibody was either affinity purified antibody Anti-N-Nedd2 or Nedd2 p12 C20 (Santa Cruz Biotechnology) at a dilution of 1:200. The secondary antibody was fluoroscein isothiocyanate-conjugated goat anti-rabbit (Cappel, Durham, N.C.) at 1:100. For visualization with a Nikon® fluorescence microscope slides were coverslipped with Aqua-mount®. Confocal microscopy was done on a BioRad® 600 confocal microscope.

## IL-1Ra: IL-1 receptor antagonist
PC12 cells [1]
  apoptosis following SOD1 down-regulation (literature): suppressed
Naive PC12 cells [2]
  death caused by trophic factor/NGF withdrawal (literature): little or no effect

## NGF: nerve growth factor
Naive PC12 cells [3]
  protection from death caused by serum deprivation: promotes survival of all cells initially plated

## V-AICH: antisense oligonucleotide having an antisense sequence of human Ich, Seq ID No. 2 (GTCAGCGGCCATCAGCTT) (linked to vector peptide (Penetratin1), oligo chemistry not given here)
Jurkat cells
  protection from anti-Fas mediated death: protect from anti-Fas mediated death in a dose-dependent manner

## V-ANedd: Penetratin1-linked antisense oligonucleotide to Nedd2, GCTCGGCGCCGCCATTTCCAG (SEQ ID NO:1) (Penetratin1 peptide conjugated, oligonucleotide chemistry not given here)
[4]; morphology, 400 nM, 24 hr
  NGF-like flattening of naive PC12 cells or neurite outgrowth from neuronally-differentiated cells: did not mimic the actions of NGF
[4]; neuronally differentiated PC12 cells, one day
  protection from apoptosis caused by NGF withdrawal: protected neuronally differentiated PC12 cells from apoptosis caused by NGF withdrawal
[4]; two successive additions (at NGF deprivation and one day later), through 4 days
  survival of cells: greater than 75%
Sympathetic neurons [5]; 400 nM, NGF-free medium with anti-NGF
  maintenance of neurites of NGF-deprived neurons: did not maintain the neurites
Sympathetic neurons [5]; after 4 days
  survival: over 60%
Sympathetic neurons [5]; at 8 days
  survival: 25%
CPP-32
  down-regulation of CPP-32: no down-regulation of CPP-32
PC12 cells [6]; naive PC12 cells, 50 nM V-ASOD1, V-ANedd up to 800 nM
  protection from SOD1 down-regulation: no protection from SOD1 down-regulation
PC12 cells [6]; pretreatment with V-ANedd
  protection from SOD1 down-regulation after pretreatment: without effect
[7]
  protection from down-regulation of SOD1: not from down-regulation of SOD1
IL-1β
  IL-1β release after exposure to ASOD1: did not affect IL-1β release
Naive PC12 cells [3]; added at the same time as serum withdrawal
  concentration of maximal protection: 400 nM
Naive PC12 cells [3]
  protection from death caused by serum deprivation: protects naive PC12 cells from death caused by serum deprivation
Naive PC12 cells [3]; pretreatment for 4 hours with 50 nM V-ANedd
  concentration of maximal survival after pretreatment: 100 nM
Nedd2 [8]; 18–22 hours treatment, n=4
  down-regulation of major band and minor Nedd2 bands: 60–70%
Nedd2 [8]; in the presence of V-ASOD1
  down-regulation of Nedd2 in the presence of V-ASOD1: did down-regulate Nedd2
Sympathetic neurons [9]
  effect on sympathetic neuron death evoked by V-ASOD1+SNAP: without effect
Nedd2 [10]
  anti-N-Nedd2 staining (immunohistochemistry): decreased to almost undetectable levels

## V-SNedd: control scrambled oligonucleotide CCGTAGCGTAGCTCCGCCTGC (SEQ ID NO:5) linked to vector peptide Penetratin 1 (linked to vector peptide Penetratin 1, further chemistry not given here) [reference compound]
Naive PC12 cells [3]
  protection from death caused by serum deprivation: no effect on survival or death
Nedd2 [8]; control oligonucleotide, Western blot
  down-regulation of Nedd2 bands (in words): did not down-regulate any of the bands
Nedd2 [10]
  anti-N-Nedd2 staining (immunohistochemistry): no change in staining
